Measurements: PMC6568278 (Chemical Science, 2019)

Tests used:
Type in all cases: cell-based
NF-κB = conditions: HEK-293/NF-κB-luc cells
rat aortic VSMCs = test: PDGF-induced VSMC proliferation; conditions: PDGF-activated rat aortic VSMCs
human umbilical vein ECs = test: Endothelial cell; conditions: 30 μM

SMILES	NF-κB inhibition (in words) (NF-κB)	VSMC proliferation inhibition (in words) (rat aortic VSMCs)	EC proliferation inhibition (in words) (human umbilical vein ECs)
COc1ccc(C[C@H]2CO[C@H](c3ccc(OC)c(OC)c3)[C@H]2COC(=O)C=C(C)C)cc1OC [1b, ((2S,3R,4R)-4-(3,4-Dimethoxybenzyl)-2-(3,4-dimethoxyphenyl)tetrahydrofuran-3-yl)methyl 3-methylbut-2-enoate]	much more suppressive effect	remained unaffected	–
COc1ccc(C[C@H]2CO[C@H](c3ccc(OC)c(OC)c3)[C@H]2COC(=O)CC(C)C)cc1OC [1c]	similarly strong inhibition to 1b	no effect	–
C/C=C(/C)C(=O)OC[C@H]1[C@@H](Cc2ccc(C(F)(F)F)cc2)CO[C@@H]1c1ccc(F)cc1 [1j, (Z)-((2S,3R,4R)-2-(4-Fluorophenyl)-4-(4-(trifluoromethyl)benzyl)tetrahydrofuran-3-yl)methyl 2-methylbut-2-enoate]	no inhibition	–	no inhibition
COc1ccc([C@H]2OC[C@H](Cc3ccc(C(C)(C)C)cc3)[C@@H]2CO)cc1OC [7b, ((2S,3R,4R)-4-(4-(tert-Butyl)benzyl)-2-(3,4-dimethoxyphenyl)tetrahydrofuran-3-yl)methanol]	inactive	much more active	–
